Reference: patent US6610675B1 (priority 1980, dated 2003)
Where “and” joins values, the source holds several entries; their conditions need not be identical. Equal entries are not always repeated.

What was measured:
thymus weight in rats = test: Thymus involution test (topically administered steroids, thymus weight in rats); conditions: 0.75 μmol topical on ear, after 24 hours
Experimental: The test animals were female Sprague/Dawley rats weighing approximately 40-45 grams each. One side of each ear of each rat was treated with a total of 25 microliters of a solution (ethanol/isopropyl myristate or acetone/isopropyl myristate, 90/10) containing the amount of test compound indicated below. Animals which were treated identically, save for omission of the test compound, served as controls. After 24 hours, all rats were sacrificed and weighed, and their thymi were removed and weighed.
The lower the weight of the thymi, the greater the systemic activity.

[1] = tested on: granulation tissue formation caused by implantation of cotton pellets; test: Granuloma formation test (local cotton pellet granuloma assay); assay type: in vivo, rat; conditions: Table III
Experimental: The test compound was dissolved in acetone and aliquots of varying concentrations were injected into cotton pellets. The pellets were dried and then one pellet was implanted beneath the skin of each test rat. Six days later, the animals were sacrificed and the granulation tissue (granuloma) which formed in and around the implanted pellet was removed, dried and weighed. In addition, the thymi and adrenals were removed and weighed.

blanching in humans = test: McKenzie-type human blanching studies; assay type: in vivo; conditions: forearm, 6 hours occlusion
Experimental: McKenzie-type human blanching studies were undertaken to study the blanching effects of a representative test compound of the invention, chloromethyl 17α-ethoxycarbonyloxy-11β-hydroxyandrost-4-en-3-one-17β-carboxylate.
The test compound was dissolved in ethanol/isopropyl myristate (90/10 or 70/30) at 0.03, 0.01, 0.003, 0.001 and 0.0003 M concentrations. 50 Microliter aliquots of each solution were applied to separate gauze portions of a bandage of the type commonly used for allergy testing and the bandage was applied to the forearm. After 6 hours of occlusion, the bandage was removed.

[2] = tested on: ear swelling induced by croton oil; test: Ear edema test; assay type: in vivo, rat; conditions: for Ear Weight, % Increase / Ear Weight, % Inhibition / Ear Weight, Inflamed Ear / Ear Weight, Untreated Ear: 6 hr; for Relative organ weight Adrenals / Relative organ weight Thymus: 48 hours
Experimental: The test animals were Sprague/Dawley rats weighing approximately 150 grams each. In treatment groups, selected amounts of the test compound were dissolved in acetone containing 5% croton oil and 50 microliters of the solution were applied to the inner surface of the right ear of the rats. A control group was identically treated with vehicle only, i.e. 5% croton oil in acetone. Six hours after croton oil challenge, a constant region of each ear was removed by dissection under anesthesia. Then, 48 hours after steroid treatment, the animals were sacrificed and the thymi and adrenals were removed and weighed. The test results showing the inhibitory effect of topically applied steroids on the ear swelling induced by croton oil are summarized in Table II below.

CC(C)OC(=O)OC1(C(=O)OCCl)[C@H](C)C[C@H]2[C@@H]3CCC4=CC(=O)C=C[C@]4(C)[C@@]3(F)C(=O)C[C@@]21C (stereo partly shown)
melting point: 138 to 140 °C

CCOC(=O)O[C@]1(C(=O)OCCl)CC[C@H]2[C@@H]3CCC4=CC(=O)CC[C@]4(C)[C@H]3[C@@H](O)C[C@@]21C [chloromethyl 17α-ethoxycarbonyloxy-11β-hydroxyandrost-4-en-3-one-17β-carboxylate]
Total Weight per Rat, % Gain ± SD (thymus weight in rats): 33 ± 6%
Total Weight per Rat, Final (thymus weight in rats): 60.60 g
mg Thymus ± SD / 100 g Rat (thymus weight in rats): 309 ± 24 mg/100 g
Body wt. gain ([1]; 0.1 mg/pellet): 36.0 ± 2.8 g
Granulation tissue Dry wt. ([1]; 0.1 mg/pellet): 34.7 ± 4.3 mg/100 g body wt.
Granulation tissue Inhibition ([1]; 0.1 mg/pellet): 20.6%
Relative organ weight Adrenals ([1]; 0.1 mg/pellet): 22.9 ± 2.6 mg/100 g body wt.
Relative organ weight Adrenals (Decrease %) ([1]; 0.1 mg/pellet): (3.4) %
Relative organ weight Thymus ([1]; 0.1 mg/pellet): 282 ± 13 mg/100 g body wt.
Relative organ weight Thymus (Decrease %) ([1]; 0.1 mg/pellet): (13.5) %
Body wt. gain ([1]; 0.3 mg/pellet): 33.0 ± 1.3 g
Granulation tissue Dry wt. ([1]; 0.3 mg/pellet): 25.3 ± 2.3 mg/100 g body wt.
Granulation tissue Inhibition ([1]; 0.3 mg/pellet): 42.1%
Relative organ weight Adrenals ([1]; 0.3 mg/pellet): 22.8 ± 1.0 mg/100 g body wt.
Relative organ weight Adrenals (Decrease %) ([1]; 0.3 mg/pellet): (3.8) %
Relative organ weight Thymus ([1]; 0.3 mg/pellet): 298 ± 16 mg/100 g body wt.
Relative organ weight Thymus (Decrease %) ([1]; 0.3 mg/pellet): (8.6) %
Body wt. gain ([1]; 1 mg/pellet): 32.8 ± 0.9 g
Granulation tissue Dry wt. ([1]; 1 mg/pellet): 14.0 ± 1.8 mg/100 g body wt.
Granulation tissue Inhibition ([1]; 1 mg/pellet): 68.0%
Relative organ weight Adrenals ([1]; 1 mg/pellet): 21.8 ± 1.3 mg/100 g body wt.
Relative organ weight Adrenals (Decrease %) ([1]; 1 mg/pellet): (8.0) %
Relative organ weight Thymus ([1]; 1 mg/pellet): 304 ± 10 mg/100 g body wt.
Relative organ weight Thymus (Decrease %) ([1]; 1 mg/pellet): (6.7) %
Body wt. gain ([1]; 3 mg/pellet): 30.7 ± 1.5 g
Granulation tissue Dry wt. ([1]; 3 mg/pellet): 18.7 ± 2.3 mg/100 g body wt.
Granulation tissue Inhibition ([1]; 3 mg/pellet): 57.2%
Relative organ weight Adrenals ([1]; 3 mg/pellet): 19.6 ± 1.1 mg/100 g body wt.
Relative organ weight Adrenals (Decrease %) ([1]; 3 mg/pellet): (17.3) %
Relative organ weight Thymus ([1]; 3 mg/pellet): 278 ± 21 mg/100 g body wt.
Relative organ weight Thymus (Decrease %) ([1]; 3 mg/pellet): (14.7) %
blanching (blanching in humans; 0.03 to 0.0003 M, 50 microliter, read 1 to 5 hours after removal): blanching was observed even at the lowest concentrations
concentration causing approximately the same degree of blanching (blanching in humans; direct comparison): ~0.001 M
Ear Weight, % Increase ([2]; 0.3 mg/kg topical): 23.3 ± 7.2 %
Ear Weight, % Inhibition ([2]; 0.3 mg/kg topical): 62.1%
Ear Weight, Inflamed Ear ([2]; 0.3 mg/kg topical): 62.2 ± 3.0 mg
Ear Weight, Untreated Ear ([2]; 0.3 mg/kg topical): 50.8 ± 2.4 mg
Relative organ weight Adrenals ([2]; 0.3 mg/kg topical): 26.0 ± 2.5 mg/100 g body wt.
Relative organ weight Thymus ([2]; 0.3 mg/kg topical): 290 ± 25 mg/100 g body wt.
Ear Weight, % Increase ([2]; 1 mg/kg topical): 14.0 ± 6.5 %
Ear Weight, % Inhibition ([2]; 1 mg/kg topical): 77.2%
Ear Weight, Inflamed Ear ([2]; 1 mg/kg topical): 55.0 ± 2.6 mg
Ear Weight, Untreated Ear ([2]; 1 mg/kg topical): 48.4 ± 1.0 mg
Relative organ weight Adrenals ([2]; 1 mg/kg topical): 18.7 ± 1.4 mg/100 g body wt.
Relative organ weight Thymus ([2]; 1 mg/kg topical): 293 ± 21 mg/100 g body wt.
Ear Weight, % Increase ([2]; 3 mg/kg topical): 3.7 ± 8.1 %
Ear Weight, % Inhibition ([2]; 3 mg/kg topical): 94.0%
Ear Weight, Inflamed Ear ([2]; 3 mg/kg topical): 52.6 ± 1.8 mg
Ear Weight, Untreated Ear ([2]; 3 mg/kg topical): 51.6 ± 3.2 mg
Relative organ weight Adrenals ([2]; 3 mg/kg topical): 20.3 ± 0.8 mg/100 g body wt.
Relative organ weight Thymus ([2]; 3 mg/kg topical): 288 ± 21 mg/100 g body wt.
swelling of the ear caused by croton oil (in words) ([2]; topical, Table II): substantially inhibited the swelling
thymus weight as compared to the control (in words) ([2]; topical, Table II): did not significantly decrease the thymus weight as compared to the control

COC(=O)O[C@]1(C(=O)OCCl)CCC2C3CCC4=CC(=O)CCC4(C)C3C(O)CC21C (stereo partly drawn) [chloromethyl 11β-hydroxy-17α-methoxycarbonyloxyandrost-4-en-3-one-17β-carboxylate]
Granulation tissue Dry wt. ([1]; 1 mg/pellet): 24.6 ± 2.6 mg/100 g body wt.
Granulation tissue Inhibition ([1]; 1 mg/pellet): 43.7%
melting point: 171 to 173 °C

CCOC(=O)O[C@]1(C(=O)OCSC)CCC2C3CCC4=CC(=O)CCC4(C)C3C(O)CC21C (stereo partly shown)
melting point: 133 to 136 °C and 137.5 to 138 °C
